The target in series [1] is T1, hH3R (Homo sapiens, UniProt Q9Y5N1).
T1 construct: expressed in transfected cells
The series is described as follows: biochemical. The class given is binding. As for the experimental part: All newly synthesized compounds were evaluated as H3R antagonists/inverse agonists on the guinea pig ileum (gpH3R), stimulated electrically to induce contractions. The distinct affinity profile and species-dependent pharmacology of H3R ligands are known. […] Therefore, to compare species differences, all newly synthesized compounds were subjected to radioligand displacement assay in membrane fractions of HEK-293 cells stably expressing hH3R. […] Ex vivo assay for histamine H3R and H1R antagonists were measured on the isolated guinea pig ileum stimulated to contractions by histamine. The pA2-values were calculated according to Arunlakshana and Schild. The radioligand-displacement binding assay was performed in membrane fractions of HEK-293 cells stably expressing hH3R. Cell cultivation and membrane preparation was performed according to Kottke et al.. The Ki values were calculated from the IC50 values using the Cheng–Prusoff equation [37]. The statistical calculations were performed on –log(Ki). […] The inhibitory activities of novel ADS compounds were assessed in spectrophotometric Ellman’s assay using AChE from electric eel (eeAChE) and BuChE from horse serum (eqBuChE).
3.3 hH3R radioligand displacement binding assay.
The radioligand displacement binding assay was performed in membrane fractions of HEK-293 cells stably expressing hH3R. Cell cultivation and membrane preparation was performed according to Kottke et al. [T. Kottke, […]
radioligand displacement assay, radioactively labeled [3H]Nα-methylhistamine was used at a final concentration […]
The total assay volume was set to 200 µL. The compounds were tested in several appropriate concentrations between 100 µM and 0.1 nM. Pipetting was partly done by Freedom Evo® (Tecan).
The membrane fraction (20 […]
µg/well), test compounds and radiolabeled ligand were incubated for 90 minutes at 25 °C while shaking. The bound radioligand was separated from the free radioligand by filtration through GF/B filters pre-treated with 0.3 % (m/v) polyethyleneimine using a cell harvester. Radioactivity was determined by liquid scintillation counting using a MicroBeta® Trilux (Perkin Elmer). The data was obtained in duplicates in at least three independent experiments. Non-specific binding was subtracted from the raw data to calculate specific-binding values. The evaluation was performed with GraphPad Prism 6.1 (San Diego, CA, USA) using non-linear regression (one-site competition with a logarithmic scale). The Ki values were calculated from the IC50 values using the Cheng-Prusoff […]
equation. [C. […] The statistical calculations […]
were performed on –log(Ki).

For series [2], the target named is T2, eeAChE (Electrophorus electricus, UniProt O42275).
T2 construct: purchased Sigma–Aldrich (Steinheim, Germany)
T2 sequence (O42275 24-633): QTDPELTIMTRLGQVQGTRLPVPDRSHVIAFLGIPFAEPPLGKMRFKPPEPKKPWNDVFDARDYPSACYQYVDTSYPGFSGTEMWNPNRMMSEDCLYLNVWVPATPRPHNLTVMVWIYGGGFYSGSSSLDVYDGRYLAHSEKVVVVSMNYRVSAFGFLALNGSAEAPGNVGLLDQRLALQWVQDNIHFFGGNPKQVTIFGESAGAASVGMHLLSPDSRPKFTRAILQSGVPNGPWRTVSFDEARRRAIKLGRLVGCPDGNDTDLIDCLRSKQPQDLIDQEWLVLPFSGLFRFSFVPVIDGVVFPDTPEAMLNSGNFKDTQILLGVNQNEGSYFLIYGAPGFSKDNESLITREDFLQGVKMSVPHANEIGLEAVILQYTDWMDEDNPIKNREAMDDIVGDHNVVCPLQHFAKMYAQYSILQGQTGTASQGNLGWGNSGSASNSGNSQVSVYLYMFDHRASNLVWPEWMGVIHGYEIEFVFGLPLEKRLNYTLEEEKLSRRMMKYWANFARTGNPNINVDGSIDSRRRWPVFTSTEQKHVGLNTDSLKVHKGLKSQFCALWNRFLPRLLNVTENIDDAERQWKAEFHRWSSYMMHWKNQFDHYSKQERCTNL
The series is described as follows: biochemical. Set-up: species or system electric eel. The note with it: 10 µM; read-out: eeAChE % inh. (10 µM) ± SD.

Series [3] addresses eqBuChE (Equus caballus, UniProt P81908). Briefly: biochemical. The note with it: for inhibition at 10 µM: read-out: eqBuChE % inh. (10 µM) ± SD; for IC50: read-out: eqBuChE IC50 ± sem.
Series [4] relates to MDA-MB-231 breast cancer cells. Briefly: Apoptosis/necrosis detection (Annexin V-FITC/PI, image cytometry), MDA-MB-231. It counts as cell-based, human. The note with it: 48 h. As for the experimental part: The MTT test results prompted further study. Staining with propidium iodide and Annexin V-FITC was performed to distinguish apoptotic from necrotic cell death.
Apoptosis was analyzed using the NucleoCounter® NC-3000™ (Chemometec Inc., Lillerød, Denmark) according to the manufacturer’s protocol using Annexin V from Biotium (Fremont, CA, USA). MCF-7 and MDA-MB-231 cells were seeded into 6-well plates (2 × 10^5 cells/mL) and cultured until 70–80% confluence was reached. […] Scatter plots were used to determine the proportion of healthy cells (Annexin V-negative/PI-negative cells), early apoptotic cells (Annexin V-positive/PI-negative cells), late apoptotic cells (Annexin V-positive/PI-positive cells), and necrotic cells (Annexin V-negative/PI-positive cells). Data were derived from three independent experiments with three replicates.

A short description of series [5]: In vitro metabolic stability in human liver microsomes. The class given is in vitro ADME. As for the experimental part: In addition to biological activity, drug-likeness is equally important in drug discovery, and should be considered at the early stage of the drug development process. Therefore, ADS10310 was subjected to testing for several ADME-Tox parameters, including metabolic stability.
All assays and protocols used for the determination of compound ADME-Tox parameters were described previously. In brief, the metabolic stability assay was performed on HLMs, purchased from Sigma-Aldrich (St. Louis, MO, USA). ADS10310 was incubated with HLMs for 120 min in Tris buffer (pH = 7.4) at 37 °C. NADPH regeneration system Promega (Madison, WI, USA) was added to initiate whereas methanol was added to terminate the reaction. The LC/MS analyses of the centrifuged reaction mixture were obtained on Waters ACQUITY™ TQD system (Waters, Milford, CT, USA). The in silico prediction of most probable sites of ADS10310 metabolism was performed by MetaSite 6.0.1 software (Molecular Discovery Ltd., Hertfordshire, UK). To predict potential DDIs the CYP3A4 and CYP2D6 P450-Glo™ kits provided by Promega (Madison, WI, USA) were used according to provided protocols. The results were calculated from two independent experiments.
In general terms: Liver microsomes are a subcellular fraction often used to study metabolism.

Where “and” joins values, the source holds several entries; their conditions need not be identical. Equal entries are not always repeated. Where two headings read alike, the source gives them in different places.

T1 sequence (Q9Y5N1 whole entry): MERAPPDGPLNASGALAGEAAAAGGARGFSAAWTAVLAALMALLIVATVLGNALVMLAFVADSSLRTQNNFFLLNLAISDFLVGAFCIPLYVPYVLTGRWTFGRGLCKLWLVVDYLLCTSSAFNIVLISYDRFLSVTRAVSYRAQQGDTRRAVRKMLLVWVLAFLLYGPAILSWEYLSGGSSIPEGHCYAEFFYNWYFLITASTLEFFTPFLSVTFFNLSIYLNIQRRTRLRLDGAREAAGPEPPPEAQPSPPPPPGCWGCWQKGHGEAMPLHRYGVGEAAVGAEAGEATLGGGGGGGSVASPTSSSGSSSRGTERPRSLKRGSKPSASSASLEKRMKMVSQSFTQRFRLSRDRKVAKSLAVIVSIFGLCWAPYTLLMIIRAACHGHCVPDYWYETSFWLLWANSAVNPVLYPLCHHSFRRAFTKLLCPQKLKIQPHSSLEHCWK
Chain of eqBuChE (P81908 whole entry): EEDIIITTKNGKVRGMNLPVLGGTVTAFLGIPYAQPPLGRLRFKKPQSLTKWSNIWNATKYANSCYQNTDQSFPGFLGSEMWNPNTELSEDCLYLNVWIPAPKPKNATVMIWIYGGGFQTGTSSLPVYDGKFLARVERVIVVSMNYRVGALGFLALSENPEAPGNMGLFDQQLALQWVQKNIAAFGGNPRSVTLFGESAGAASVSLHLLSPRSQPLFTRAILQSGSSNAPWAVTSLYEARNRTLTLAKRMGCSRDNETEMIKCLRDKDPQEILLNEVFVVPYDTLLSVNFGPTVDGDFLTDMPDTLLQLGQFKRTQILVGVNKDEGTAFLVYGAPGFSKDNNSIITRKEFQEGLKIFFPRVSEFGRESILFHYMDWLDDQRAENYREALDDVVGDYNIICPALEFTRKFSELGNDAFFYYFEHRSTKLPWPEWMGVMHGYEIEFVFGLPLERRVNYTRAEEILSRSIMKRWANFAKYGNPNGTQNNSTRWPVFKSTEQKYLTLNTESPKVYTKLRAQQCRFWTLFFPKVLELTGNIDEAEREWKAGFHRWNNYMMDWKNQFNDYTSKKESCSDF

As usually defined, the Ki is a dissociation constant, usually derived from enzyme kinetics or from competition with a known ligand. What is called IC50 is the concentration needed to halve the response being measured. For the molecule `Cl.Cl.N=C(NCCCCc1ccc(Cl)cc1)NCCCCN1CCCCC1` [ADS10310], in series [1] (hH3R Ki), the Ki is < 200 nM and 127 nM. For the same molecule, the figures for the inhibition at 10 µM in series [2] and in series [3] were 7.3 ± 0.9% and 83.9 ± 0.1%, respectively. Besides, the IC50 in series [3] turned out to be 1700 ± 100 nM. Moreover, the “mode of cell death (in words)” value in series [4] (both breast cancer lines, IC50 concentration) is given as “mainly late apoptotic cells”. The “Substrate Remaining” value in series [5] (120 min incubation with HLMs, Tris buffer pH 7.4, 37 °C) came out at 73.6%. Also, the “Metabolic Pathway” value in series [5] (HLMs, metabolites M1-M3 by LC/MS) was “decomposition and triple hydroxylation”.

As to `N=C(N)N(CCCCN1CCN(CCCCCCCOc2ccccc2)CC1)Cc1ccccc1` [ADS1017], in series [1] (mean ± sem, at least three independent experiments, read-out: hH3R -log(Ki) ± sem (converted)), the inhibitory constant (Ki) is 513 nM. Further, the inhibition at 10 µM in series [2] stood at 49.7 ± 0.7%. In series [3], the inhibition at 10 µM was 70.8 ± 0.6% and the IC50 worked out at 5100 ± 100 nM. Further, in series [4] (MDA-MB-231, IC50 concentration), the “early apoptotic cells (Q1lr)” value was found to be 22% and the “late apoptotic cells (Q1ur)” value was determined as 39%.

For the origin of these results see PMC10223552 (Pharmaceuticals, 2023).
